Data as given in patent EP1129352B1 (priority 1998, dated 2000).
Where two headings read alike, the source gives them in different places. Numbered stars: 1 amine (or outer) side, 2 acyl side, 3 side chain; on linkers, the order of the positions; unused ones are H or OH. Bridge positions count the residues as written; N and C are the ends. Square brackets hold non-standard residues; d marks the D form. Peptide text beside a SMILES is read from it. Adda = CO[C@@H](Cc1ccccc1)[C@@H](C)/C=C(C)/C=C/[C@H](N[*:1])[C@H](C)C(=O)[*:2]; dAsp(3S-Me) = C[C@H](C(=O)[*:3])[C@@H](N[*:1])C(=O)[*:2]; d(γGlu) = O=C(O)[C@@H](CCC(=O)[*:2])N[*:1]; NMeDha = C=C(NC)C(=O)O

Experiments:
[1] = molecular target: T1, protein phosphatase 2A (Homo sapiens, UniProt P67775); experiment: biochemical; type: binding
T1 construct: purchased Upstate Biotechnology (Lake Placid, NY)
T1 sequence (P67775 whole entry): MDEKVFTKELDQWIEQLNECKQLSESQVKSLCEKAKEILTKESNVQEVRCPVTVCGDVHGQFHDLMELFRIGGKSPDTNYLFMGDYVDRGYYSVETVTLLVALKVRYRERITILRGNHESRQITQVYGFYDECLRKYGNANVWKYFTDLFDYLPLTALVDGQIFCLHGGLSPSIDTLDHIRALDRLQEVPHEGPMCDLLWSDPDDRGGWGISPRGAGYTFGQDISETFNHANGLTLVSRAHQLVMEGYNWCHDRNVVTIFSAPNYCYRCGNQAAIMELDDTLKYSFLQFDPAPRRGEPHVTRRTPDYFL

[2] = molecular target: T1, protein phosphatase 2A; experiment: biochemical; type: biochemical
[3] = 0.4%, preincubated 30 minutes on ice, relative to control, ± SEM
[4] = read-out: % activity Competitive binding assay
[5] = read-out: % activity Protein phosphatase assay

Compound: Triton X-100
- % activity Competitive binding assay ([1]; 0.4%): 122.3 ± 1.0%
- % activity Protein phosphatase assay [2, 3]: 60.2 ± 5.7%

Compound: CC#N [acetonitrile]
- % activity Competitive binding assay [1]: 90.4 ± 5.4%
- % activity Protein phosphatase assay [2]: 88.2 ± 2.7%

Compound: [F-].[Na+] [NaF]
- % activity Competitive binding assay ([1]; 5 mM): 102.0 ± 3.3%
- % activity Competitive binding assay ([1]; 50 mM): 101.5 ± 1.9%
- % activity Protein phosphatase assay ([2]; 5 mM, preincubated 30 minutes on ice, relative to control, ± SEM): 62.6 ± 0.4%
- % activity Protein phosphatase assay ([2]; 50 mM, preincubated 30 minutes on ice, relative to control, ± SEM): 7.7 ± 1.4%

Compound: C=C1C(=O)N[C@H](C)C(=O)N[C@@H](CC(C)C)C(=O)N[C@@H](C(=O)O)[C@H](C)C(=O)N[C@@H](CCCNC(=N)N)C(=O)N[C@@H](/C=C/C(C)=C/[C@H](C)[C@H](Cc2ccccc2)OC)[C@H](C)C(=O)N[C@@H](C(=O)O)CCC(=O)N1C [microcystin-LR, reference compound] (R[Adda][d(γGlu)][NMeDha][dA]L[dAsp(3S-Me)]-OH; lactam N-7)
- IC50 ([1]; read-out: IC50): 17 pM

Compound: O=P([O-])([O-])OP(=O)([O-])[O-].[Na+].[Na+].[Na+].[Na+] [NaPPi]
- % activity Competitive binding assay ([1]; 0.05 mM): 101.4 ± 4.1%
- % activity Protein phosphatase assay ([2]; 0.05 mM, preincubated 30 minutes on ice, relative to control, ± SEM): 14.2 ± 1.2%

Compound: C/C=C1/C(=O)N[C@@H](C(=O)O)[C@H](C)C(=O)N[C@@H](CCCNC(=N)N)C(=O)N[C@@H](/C=C/C(C)=C/[C@H](C)[C@H](Cc2ccccc2)OC)[C@H](C)C(=O)N[C@@H](C(=O)O)CCC(=O)N1C [nodularin, reference compound]
- IC50 ([1]; read-out: IC50): 15 pM

Compound: C[C@H](CCC(=O)NCCC[N+](C)(C)CCCS(=O)(=O)[O-])[C@H]1CC[C@H]2[C@@H]3[C@H](O)C[C@@H]4C[C@H](O)CC[C@]4(C)[C@H]3C[C@H](O)[C@]12C [CHAPS]
- % activity Competitive binding assay [1]: 90.9 ± 9.9%
- % activity Protein phosphatase assay [2]: 138.0 ± 34.4%

Compound: COC[C@@H]([C@H](O)[C@H](O)C(=O)NCC[C@H](C)c1nc(/C=C/C[C@@H]2O[C@]3(C[C@@H](O)[C@@H]2C)O[C@H]([C@H](C[C@H](O)[C@H](C)[C@H](O)[C@H](C)/C=C(C)/C(C)=C/C=C/C(C)=C\C#N)OC)[C@H](OP(=O)(O)O)C3(C)C)co1)N(C)C [calyculin A, reference compound]
- IC50 ([1]; read-out: IC50): 251 pM

Compound: microcystin-YR [reference compound]
- IC50 ([1]; read-out: IC50): 75 pM

Compound: C[S+](C)[O-] [DMSO, dimethyl sulfoxide]
- % activity Competitive binding assay [1]: 72.8 ± 2.3%
- % activity Protein phosphatase assay [2]: 97.9 ± 3.3%

Compound: Nonidet P-40
- % activity Competitive binding assay ([1]; 0.4%): 106.0 ± 2.0%
- % activity Protein phosphatase assay [2, 3]: 61.1 ± 1.3%

Compound: CO[C@H]([C@H](O)CC(=O)[C@@H](C)[C@@H](O)CC[C@@H](C)[C@@H]1O[C@]2(CC[C@@H](C)[C@H](CC[C@H](C)C(C)=O)O2)CC[C@@H]1C)[C@H](OC(=O)C[C@@H](O)C1=C(C)C(=O)OC1=O)C(C)C [tautomycin, reference compound]
- IC50 [1]: 562 pM

Compound: C=C1[C@@H](O)[C@@H]2O[C@]3(CC[C@H](/C=C/[C@@H](C)[C@@H]4CC(C)=C[C@@]5(O[C@H](C[C@@](C)(O)C(=O)O)CC[C@H]5O)O4)O3)CC[C@H]2O[C@@H]1[C@@H](O)C[C@H](C)[C@H]1O[C@@]2(CCCCO2)CC[C@H]1C [okadaic acid, reference compound]
- IC50 [1]: 100 pM

Compound: [Cl-].[Na+] [NaCl]
- % activity Competitive binding assay [1]: 41.2 ± 0.7%
- % activity Protein phosphatase assay [2]: 44.4 ± 1.6%

Compound: Nc1ncnc2c1ncn2[C@@H]1O[C@H](COP(=O)(O)OP(=O)(O)OP(=O)(O)O)[C@@H](O)[C@H]1O [ATP]
- activity at 500 µM [1, 4]: 102 ± 1.7%
- activity at 2000 µM [1, 4]: 103.3 ± 0.2%
- activity at 500 µM [2, 5]: 29.8 ± 5.6%
- activity at 2000 µM [2, 5]: 9.8 ± 3.4%

Compound: CO [MeOH]
- % activity Competitive binding assay ([1]; 10%): 73.9 ± 0.5%
- % activity Protein phosphatase assay ([2]; 10%, preincubated 30 minutes on ice, relative to control, ± SEM): 87.4 ± 4.1%
